ChEMBL document CHEMBL3046900, “Synthesis and Fungitoxic Activity of N-Cinnamoyl--Amino Acid Esters” (2000)

How the values were obtained:
Type in all cases: functional
[1] = system: Pythium; experiment: Fungitoxic activity against Pythium sp. assessed as mycelial growth inhibition at 100 ppm after 3 days; conditions: 72 h, read-out: GI
[2] = system: Athelia rolfsii; experiment: Fungitoxic activity against Athelia rolfsii assessed as mycelial growth inhibition at 100 ppm after 3 days; conditions: Agroathelia rolfsii, 72 h; read-out: GI
[3] = system: Pythium; experiment: Fungitoxic activity against Pythium sp. assessed as mycelial growth inhibition at 10 ppm after 3 days; conditions: 72 h, read-out: GI
[4] = system: Athelia rolfsii; experiment: Fungitoxic activity against Athelia rolfsii assessed as mycelial growth inhibition at 10 ppm after 3 days; conditions: Agroathelia rolfsii, 72 h; read-out: GI

SMILES | inhibition of growth at 100 ppm [1] | inhibition of growth at 100 ppm [2] | inhibition of growth at 10 ppm [3] | inhibition of growth at 10 ppm [4]
CCCOC(=O)[C@H](C)NC(=O)/C=C/c1ccccc1 | 33% | 48% | – | –
COC(=O)[C@H](CC(C)C)NC(=O)/C=C/c1ccc(Cl)cc1 | 32% | 50% | – | –
CCOC(=O)[C@@H](NC(=O)/C=C/c1ccc(Cl)cc1)C(C)C | 54% | 47% | – | –
CCOC(=O)[C@@H](NC(=O)/C=C/c1ccc(C(C)C)cc1)C(C)C | 67% | 51% | 10% | 27%
CC(C)C[C@H](NC(=O)/C=C/c1ccc(Cl)cc1Cl)C(=O)OC(C)C | 42% | 39% | – | –
CCOC(=O)[C@@H](NC(=O)/C=C/c1ccccc1)C(C)C | 41% | 41% | – | –
CCOC(=O)[C@H](C)NC(=O)/C=C/c1ccc(C(C)C)cc1 | 63% | 60% | 0% | 27%
CCCOC(=O)[C@H](C)NC(=O)/C=C/c1ccc(Cl)cc1Cl | 61% | 51% | 0% | 14%
COC(=O)[C@H](C)NC(=O)/C=C/c1ccc(Cl)cc1 | 26% | 44% | – | –
CC(C)C[C@H](NC(=O)/C=C/c1ccc(C(C)C)cc1)C(=O)OC(C)C | 53% | 56% | 25% | 35%
CCOC(=O)[C@H](Cc1ccccc1)NC(=O)/C=C/c1ccccc1 | 26% | 62% | – | 27%
CCCOC(=O)[C@H](CC(C)C)NC(=O)/C=C/c1ccc(C(C)C)cc1 | 43% | 46% | – | –
COC(=O)[C@H](C)NC(=O)/C=C/c1ccc(C(C)C)cc1 | 52% | 67% | – | –
CCCOC(=O)[C@H](C)NC(=O)/C=C/c1ccc(Cl)cc1 | 21% | 38% | – | –
CC(C)OP(=O)(OC(C)C)SCc1ccccc1 [IPROBENFOS] | 89% | 100% | 42% | 69%
COC(=O)[C@H](C)NC(=O)/C=C/c1ccccc1 | 13% | 25% | – | –
CC(C)OC(=O)CNC(=O)/C=C/c1ccccc1 [ISOPROPYL 2-CINNAMAMIDOACETATE] | 42% | 61% | – | 15%
CCCOC(=O)CNC(=O)/C=C/c1ccc(C(C)C)cc1 | 63% | 74% | 24% | 23%
CCOC(=O)[C@H](C)NC(=O)/C=C/c1ccccc1 | 21% | 14% | – | –
CCOC(=O)[C@@H](NC(=O)/C=C/c1ccc(Cl)cc1Cl)[C@@H](C)CC | 52% | 47% | 20% | –

SMILES | inhibition of growth at 100 ppm [1] | inhibition of growth at 100 ppm [2] | inhibition of growth at 10 ppm [3] | inhibition of growth at 10 ppm [4]
CCOC(=O)[C@@H](NC(=O)/C=C/c1ccc(C(C)C)cc1)[C@@H](C)CC | 57% | 45% | 23% | –
COC(=O)[C@H](CC(C)C)NC(=O)/C=C/c1ccc(Cl)cc1Cl | 55% | 42% | 12% | –
COC(=O)[C@@H](NC(=O)/C=C/c1ccccc1)C(C)C | 33% | 29% | – | –
CCOC(=O)[C@H](Cc1ccccc1)NC(=O)/C=C/c1ccc(Cl)cc1 | 15% | 22% | – | –
CCOC(=O)[C@@H](NC(=O)/C=C/c1ccccc1)[C@@H](C)CC | 49% | 30% | – | –
COC(=O)[C@@H](NC(=O)/C=C/c1ccc(C(C)C)cc1)C(C)C | 74% | 63% | 14% | 23%
CC(C)C[C@H](NC(=O)/C=C/c1ccccc1)C(=O)OC(C)C | 34% | 41% | – | –
CCOC(=O)[C@H](Cc1ccccc1)NC(=O)/C=C/c1ccc(C(C)C)cc1 | 20% | 18% | – | –
CCCOC(=O)[C@H](C)NC(=O)/C=C/c1ccc(C(C)C)cc1 | 52% | 53% | 4% | 20%
CCCOC(=O)[C@H](CC(C)C)NC(=O)/C=C/c1ccc(Cl)cc1 | 38% | 56% | – | 25%
CCCOC(=O)[C@H](CC(C)C)NC(=O)/C=C/c1ccc(Cl)cc1Cl | 38% | 33% | – | –
CCOC(=O)[C@@H](NC(=O)/C=C/c1ccc(Cl)cc1Cl)C(C)C | 68% | 47% | 19% | –
COC(=O)[C@H](CC(C)C)NC(=O)/C=C/c1ccc(C(C)C)cc1 | 60% | 35% | 6% | –
COC(=O)[C@H](C)NC(=O)/C=C/c1ccc(Cl)cc1Cl | 55% | 49% | – | –
CC(C)OC(=O)CNC(=O)/C=C/c1ccc(C(C)C)cc1 | 70% | 79% | 11% | 37%
CCOC(=O)[C@H](CC(C)C)NC(=O)/C=C/c1ccc(Cl)cc1Cl | 30% | 34% | – | –
COC(=O)[C@H](Cc1ccccc1)NC(=O)/C=C/c1ccc(Cl)cc1Cl | 38% | 46% | – | –
COC(=O)[C@H](Cc1ccccc1)NC(=O)/C=C/c1ccccc1 | 37% | 49% | – | –
CCOC(=O)[C@H](Cc1ccccc1)NC(=O)/C=C/c1ccc(Cl)cc1Cl | 18% | 35% | – | –
CC[C@H](C)[C@H](NC(=O)/C=C/c1ccccc1)C(=O)OC | 39% | 33% | – | –

SMILES | inhibition of growth at 100 ppm [1] | inhibition of growth at 100 ppm [2] | inhibition of growth at 10 ppm [3] | inhibition of growth at 10 ppm [4]
CCOC(=O)[C@H](C)NC(=O)/C=C/c1ccc(Cl)cc1 | 27% | 47% | – | –
COC(=O)[C@@H](NC(=O)/C=C/c1ccc(Cl)cc1Cl)C(C)C | 67% | 63% | 10% | 24%
CC(C)OC(=O)CNC(=O)/C=C/c1ccc(Cl)cc1 | 57% | 50% | 0% | 41%
CCOC(=O)[C@H](CC(C)C)NC(=O)/C=C/c1ccc(C(C)C)cc1 | 44% | 43% | – | –
COC(=O)[C@H](Cc1ccccc1)NC(=O)/C=C/c1ccc(C(C)C)cc1 | 57% | 52% | 8% | 28%
CC[C@H](C)[C@H](NC(=O)/C=C/c1ccc(C(C)C)cc1)C(=O)OC | 65% | 55% | 26% | 41%
CCCOC(=O)[C@H](CC(C)C)NC(=O)/C=C/c1ccccc1 | 31% | 45% | – | –
COC(=O)[C@H](CC(C)C)NC(=O)/C=C/c1ccccc1 | 23% | 30% | – | –
CC[C@H](C)[C@H](NC(=O)/C=C/c1ccc(Cl)cc1Cl)C(=O)OC | 59% | 48% | 18% | –
CCOC(=O)[C@H](CC(C)C)NC(=O)/C=C/c1ccc(Cl)cc1 | 22% | 53% | – | 16%
CC[C@H](C)[C@H](NC(=O)/C=C/c1ccc(Cl)cc1)C(=O)OC | 51% | 65% | 0% | 20%
CCCOC/C(=N\c1ccc(Cl)cc1C(F)(F)F)n1ccnc1 [TRIFLUMIZOLE] | 94% | 100% | 71% | 64%
CCCOC(=O)CNC(=O)/C=C/c1ccc(Cl)cc1 | 48% | 56% | – | 35%
CCCOC(=O)CNC(=O)/C=C/c1ccccc1 [PROPYL 2-CINNAMAMIDOACETATE] | 47% | 53% | – | 26%
COC(=O)[C@H](Cc1ccccc1)NC(=O)/C=C/c1ccc(Cl)cc1 | 13% | 47% | – | –
CC(C)C[C@H](NC(=O)/C=C/c1ccc(Cl)cc1)C(=O)OC(C)C | 70% | 89% | 7% | 32%
CCOC(=O)[C@H](CC(C)C)NC(=O)/C=C/c1ccccc1 | 16% | 40% | – | –
CC(C)OC(=O)CNC(=O)/C=C/c1ccc(Cl)cc1Cl | 70% | 94% | 9% | 38%
CCOC(=O)[C@@H](NC(=O)/C=C/c1ccc(Cl)cc1)[C@@H](C)CC | 58% | 50% | 0% | 42%
CCCOC(=O)CNC(=O)/C=C/c1ccc(Cl)cc1Cl | 40% | 28% | – | –
